Measurements taken from the supplement of paper PMC9663587.

Columns and labels:
[1] = compound: CN(C)C/C=C/C(=O)Nc1ccc(C(=O)Nc2cccc(Nc3ncc(Cl)c(-c4c[nH]c5ccccc45)n3)c2)cc1 [THZ1]; assay: GR value, 72 h; higher = faster growth (1 = untreated, <0 = killing);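 further: breast cancer and non-malignant breast epithelial lines, nine half-log doses, viable cells counted by Hoechst and LIVE/DEAD dye imaging versus time-zero plates and DMSO controls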
[2] = compound: T1, CN(C)C/C=C/C(=O)Nc1ccc(C(=O)N2CCC[C@@H](Nc3ncc(Cl)c(-c4c[nH]c5ccccc45)n3)C2)cc1 [THZ531]; assay: as above
[3] = compound: CC(=O)c1c(C)c2cnc(Nc3ccc(N4CCN(CCOCCOCCOCCNC(=O)COc5cccc6c5C(=O)N(C5CCC(=O)NC5=O)C6=O)CC4)cn3)nc2n(C2CCCC2)c1=O [BSJ-03-123]; assay: as above
[4] = compound: CCc1cnn2c(NCc3ccc[n+]([O-])c3)cc(N3CCCC[C@H]3CCO)nc12; assay: as above
[5] = compound: CCN1CCN(Cc2ccc(Nc3ncc(F)c(-c4cc(F)c5nc(C)n(C(C)C)c5c4)n3)nc2)CC1; assay: as above
[6] = compound: C=CC(=O)Nc1ccc(C(=O)Nc2[nH]nc3c2CN(C(=O)N[C@H](CN(C)C)c2ccccc2)C3(C)C)cc1 [YKL-5-124]; assay: as above
[7] = compound: CN(C)C(=O)c1cc2cnc(Nc3ccc(N4CCNCC4)cn3)nc2n1C1CCCC1 [LEE011/Ribociclib]; assay: as above
[8] = compound: CC(=O)c1c(C)c2cnc(Nc3ccc(N4CCNCC4)cn3)nc2n(C2CCCC2)c1=O; assay: as above
[9] = compound: T1, THZ531
[10] = compound: O=C1NC(=O)[C@@H](c2cn3c4c(cccc24)CCC3)[C@@H]1c1c[nH]c2ccccc12 [Tivantinib/ARQ197]
[11] = compound: CC(=O)O[C@H]1C(=O)[C@@]2(C)[C@H]([C@H](OC(=O)c3ccccc3)[C@]3(O)C[C@H](OC(=O)[C@H](O)[C@@H](NC(=O)c4ccccc4)c4ccccc4)C(C)=C1C3(C)C)[C@]1(OC(C)=O)CO[C@@H]1C[C@@H]2O [Paclitaxel]
[12] = compound: CN1CCN(C(=O)c2ccc3cc(CCNc4ncnc5ccc(C#N)cc45)ccc3c2)CC1 [senexin b]
[13] = compound: CS(=O)(=O)N1CCN(Cc2cc3nc(-c4cccc5[nH]ncc45)nc(N4CCOCC4)c3s2)CC1 [Pictilisib/GDC0941]
[14] = compound: C[C@@H]1COCCN1c1cc(C2([S@](C)(=N)=O)CC2)nc(-c2cc[nH]c3nccc2-3)n1 [AZD6738]
[15] = compound: Cc1cc(Nc2ncc(Cl)c(Nc3ccccc3S(=O)(=O)C(C)C)n2)c(OC(C)C)cc1C1CCNCC1 [Ceritinib/LDK378]
[16] = compound: CNCc1ccc(-c2[nH]c3cc(F)cc4c3c2CCNC4=O)cc1 [Rucaparib]
[17] = compound: CN(C)C/C=C/C(=O)Nc1ccc(O[C@@H]2CCC[C@@H](Nc3ncc(Cl)c(-c4c[nH]c5ccccc45)n3)C2)cc1 [BSJ-01-175]
[18] = compound: COc1cc2c(Oc3ccc4[nH]c(C)cc4c3F)ncnc2cc1OCCCN1CCCC1 [Cediranib/AZD2171]
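Wherever GR50, 72 h is given: breast cancer and non-malignant breast epithelial cell lines, Deep Dye Drop or Dye Drop imaging, nine half-log doses, GR normalized to time-zero plates and DMSO-only controls.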

HCC1395 was tested, and the GR value ([1]; 0.0001 µM) was 1 GR, the GR value ([1]; 0.0003162 µM) was 1.01 GR and the GR value ([1]; 0.001 µM) was 0.982 GR. For the same cell line, the GR value ([1]; 0.003162 µM) was 0.985 GR, the GR value ([1]; 0.01 µM) was 1.04 GR and the GR value ([1]; 0.03162 µM) was 0.241 GR. The GR value ([1]; 0.1 µM) was -0.42 GR, the GR value ([1]; 0.3162 µM) was -0.546 GR and the GR value ([1]; 1 µM) was -0.795 GR. The GR value ([2]; 0.0001 µM) was 1.14 GR, the GR value ([2]; 0.0003162 µM) was 0.962 GR and the GR value ([2]; 0.001 µM) was 0.995 GR. The GR value ([2]; 0.003162 µM) was 0.947 GR, the GR value ([2]; 0.01 µM) was 0.976 GR and the GR value ([2]; 0.03162 µM) was 0.76 GR. For the same cell line, the GR value ([2]; 0.1 µM) was 0.408 GR, the GR value ([2]; 0.3162 µM) was -0.251 GR and the GR value ([2]; 1 µM) was -0.587 GR. The GR value ([3]; 0.001 µM) was 0.847 GR, the GR value ([3]; 0.003162 µM) was 0.925 GR and the GR value ([3]; 0.01 µM) was 0.769 GR. It also gave a GR value ([3]; 0.03162 µM) of 0.767 GR, a GR value ([3]; 0.1 µM) of 0.774 GR and a GR value ([3]; 0.3162 µM) of 0.692 GR. The GR value ([3]; 1 µM) was 0.572 GR, the GR value ([3]; 3.162 µM) was 0.534 GR and the GR value ([3]; 10 µM) was -0.188 GR. The GR value ([4]; 0.0001 µM) was 1.09 GR, the GR value ([4]; 0.0003162 µM) was 1.1 GR and the GR value ([4]; 0.001 µM) was 1.05 GR. For the same cell line, the GR value ([4]; 0.003162 µM) was 1.04 GR, the GR value ([4]; 0.01 µM) was 0.649 GR and the GR value ([4]; 0.03162 µM) was -0.319 GR. It also gave a GR value ([4]; 0.1 µM) of -0.482 GR, a GR value ([4]; 0.3162 µM) of -0.507 GR and a GR value ([4]; 1 µM) of -0.488 GR. It also gave a GR value ([5]; 0.001 µM) of 0.922 GR, a GR value ([5]; 0.003162 µM) of 0.928 GR and a GR value ([5]; 0.01 µM) of 0.734 GR. For the same cell line, the GR value ([5]; 0.03162 µM) was 0.594 GR, the GR value ([5]; 0.1 µM) was 0.387 GR and the GR value ([5]; 0.3162 µM) was 0.361 GR. The GR value ([5]; 1 µM) was 0.283 GR, the GR value ([5]; 3.162 µM) was 0.0357 GR and the GR value ([5]; 10 µM) was -0.543 GR. The GR value ([6]; 0.001 µM) was 0.63 GR, the GR value ([6]; 0.003162 µM) was 0.375 GR and the GR value ([6]; 0.01 µM) was 0.275 GR. The GR value ([6]; 0.03162 µM) was 0.158 GR, the GR value ([6]; 0.1 µM) was 0.0856 GR and the GR value ([6]; 0.3162 µM) was 0.0979 GR. The GR value ([6]; 1 µM) was 0.0594 GR, the GR value ([6]; 3.162 µM) was -0.0428 GR and the GR value ([6]; 10 µM) was -0.311 GR. It also gave a GR value ([7]; 0.001 µM) of 0.88 GR, a GR value ([7]; 0.003162 µM) of 0.843 GR and a GR value ([7]; 0.01 µM) of 0.691 GR. It also gave a GR value ([7]; 0.03162 µM) of 0.847 GR, a GR value ([7]; 0.1 µM) of 0.657 GR and a GR value ([7]; 0.3162 µM) of 0.674 GR. For the same cell line, the GR value ([7]; 1 µM) was 0.569 GR, the GR value ([7]; 3.162 µM) was 0.553 GR and the GR value ([7]; 10 µM) was 0.415 GR. For the same cell line, the GR value ([8]; 0.0003162 µM) was 1.12 GR, the GR value ([8]; 0.001 µM) was 1.07 GR and the GR value ([8]; 0.003162 µM) was 1.06 GR. The GR value ([8]; 0.01 µM) was 0.944 GR, the GR value ([8]; 0.03162 µM) was 0.702 GR and the GR value ([8]; 0.1 µM) was 0.495 GR. It also gave a GR value ([8]; 0.3162 µM) of 0.444 GR, a GR value ([8]; 1 µM) of 0.386 GR and a GR value ([8]; 3.162 µM) of 0.324 GR. The “GR50, 72 h” value [9] was 0.0785 µM, the “GR50, 72 h” value [10] was 0.481 µM and the “GR50, 72 h” value [11] was 0.00388 µM. The “GR50, 72 h” value [12] was 5.9 µM, the “GR50, 72 h” value [13] was 1.43 µM and the “GR50, 72 h” value [14] was 1.81 µM. The “GR50, 72 h” value [15] was 1.6 µM, the “GR50, 72 h” value [16] was 0.957 µM and the “GR50, 72 h” value [17] was 0.015 µM. The “GR50, 72 h” value [18] was 1.59 µM.
